Experimental findings from PubChem BioAssay (NCI) are described below.

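Growth conditions: 96-well plates. Treatment: test compound, 48 hours, 5 concentrations. Analysis: linear interpolation between bracketing concentrations; unreached endpoints set to highest concentration. The concentration for 50% growth inhibition is given as GI50. TGI: total growth inhibition.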

Test systems include 786-0 renal; HCC-2998 colon; HOP-92 NSCLC; KM20L2 colon; OVCAR-8 ovarian; SN12C renal; SNB-78 CNS; UACC-62 melanoma; RPMI-8226 leukemia; SK-MEL-28 melanoma.
Common to all, as to test: DTP human tumour cell line panel, 48 h

As to `[Cl-].[Rh+3].c1cnc2c(c1)ccc1cccnc12.c1cnc2c(c1)ccc1cccnc12.c1cnc2c(c1)ccc1cccnc12`, the TGI in the experiment on 786-0 renal, in the experiment on HCC-2998 colon, in the experiment on HOP-92 NSCLC, in the experiment on KM20L2 colon, with OVCAR-8 ovarian and in the experiment with SN12C renal was over 100 µM in each case. The TGI in the experiment on SNB-78 CNS and in the experiment with UACC-62 melanoma was over 100 µM throughout. Moreover, the GI50 with KM20L2 colon and with SNB-78 CNS was over 100 µM in each case.

Regarding `O=C(N/N=C/C=C/c1ccccc1)[C@H](O)[C@@H](O)C(=O)N/N=C/C=C/c1ccccc1`, the TGI in the experiment on HCC-2998 colon, in the experiment on KM20L2 colon, with OVCAR-8 ovarian, with RPMI-8226 leukemia, in the experiment with SK-MEL-28 melanoma and with SN12C renal was over 100 µM in each case. Moreover, the TGI in the experiment with SNB-78 CNS and with UACC-62 melanoma was over 100 µM throughout.

On to `Nc1nc(I)nc2c1ncn2C1OC(COS(N)(=O)=O)C(O)C1O` (stereo unspecified), for which the TGI was 0.0297 µM in the experiment with 786-0 renal; 0.0311 µM in the experiment on HCC-2998 colon; 0.0464 µM in the experiment with HOP-92 NSCLC; under 0.0106 µM with OVCAR-8 ovarian; 0.172 µM in the experiment with RPMI-8226 leukemia; 0.0148 µM in the experiment on SK-MEL-28 melanoma. The TGI in the experiment with SN12C renal was found to be 0.032 µM; in the experiment on UACC-62 melanoma, 0.0606 µM.

Turning to `CC(=O)N(C(C)=O)n1c(Cc2ccc(Cl)cc2)n[nH]c1=O`, the TGI with 786-0 renal, in the experiment on HCC-2998 colon, with HOP-92 NSCLC, in the experiment with OVCAR-8 ovarian, in the experiment with RPMI-8226 leukemia and with SK-MEL-28 melanoma was over 100 µM each time. The TGI in the experiment on SN12C renal and in the experiment with UACC-62 melanoma was over 100 µM throughout.

For the compound `COC(=O)C1=C(O)C(C(=O)OC)[C@]2(O)[C@H](C(=O)OC)[C@H]1C[C@@H](c1ccc(OC)c(OC)c1)[C@H]2C(=O)OC` (stereo partly specified), the TGI with 786-0 renal is over 100 µM; with HCC-2998 colon, 27.1 µM; in the experiment on HOP-92 NSCLC it was over 100 µM; with OVCAR-8 ovarian it was 31.1 µM; in the experiment on RPMI-8226 leukemia it was 19.1 µM; in the experiment with SK-MEL-28 melanoma, 90.7 µM. The TGI in the experiment on SN12C renal and in the experiment on UACC-62 melanoma was over 100 µM in each case.

Turning to `N#Cc1c(=O)n(-c2ccccc2)c(O)c2c(N)n[nH]c12`, the TGI with 786-0 renal, in the experiment with HCC-2998 colon, in the experiment on HOP-92 NSCLC, with OVCAR-8 ovarian, with RPMI-8226 leukemia and in the experiment with SK-MEL-28 melanoma was over 100 µM in each case. The TGI with SN12C renal and in the experiment on UACC-62 melanoma was over 100 µM throughout.

Consider `Cc1ccc(S(=O)(=O)c2ccsc2NC(=O)C(F)(F)F)cc1`, for which the TGI with 786-0 renal was over 100 µM; in the experiment with HCC-2998 colon it was over 100 µM; in the experiment with HOP-92 NSCLC, over 100 µM; in the experiment with OVCAR-8 ovarian, over 100 µM; in the experiment on RPMI-8226 leukemia, 31 µM; with SK-MEL-28 melanoma, over 100 µM. Besides, the figures for the TGI with SN12C renal and with UACC-62 melanoma were 66.8 µM and over 100 µM, respectively.

Consider `c1ccc(-c2nc3ccccc3n3c(CN4CCCCC4)nnc23)cc1`, for which the TGI with 786-0 renal, in the experiment on HCC-2998 colon, with HOP-92 NSCLC, in the experiment with OVCAR-8 ovarian, in the experiment with RPMI-8226 leukemia and in the experiment with SK-MEL-28 melanoma was over 100 µM in each case. Besides, the TGI in the experiment with SN12C renal and with UACC-62 melanoma was over 100 µM in each case.

For the compound `CC(=N)OC1CC2CCC1(C)C2(C)C` (stereo unspecified), the TGI in the experiment with 786-0 renal, in the experiment with HCC-2998 colon, in the experiment with HOP-92 NSCLC, in the experiment with OVCAR-8 ovarian, in the experiment with RPMI-8226 leukemia and in the experiment with SK-MEL-28 melanoma was over 100 µM each time. The TGI in the experiment on SN12C renal and in the experiment with UACC-62 melanoma was over 100 µM each time.

`CCOC(=O)c1oc2cc3c(c4c2c1-c1ccccc1N4C)C=CC(C)(C)O3`: the TGI with 786-0 renal is over 53 µM; in the experiment with HCC-2998 colon it was over 100 µM; in the experiment with HOP-92 NSCLC it was 17.7 µM; in the experiment with OVCAR-8 ovarian it was 27.1 µM; in the experiment on RPMI-8226 leukemia it was over 64 µM; with SK-MEL-28 melanoma, over 95.4 µM. In addition, the TGI is over 100 µM with SN12C renal and over 43.4 µM in the experiment on UACC-62 melanoma.

On to `CN(C)c1ccc(/C=C2/NC(=S)NC2=O)cc1`, for which the TGI in the experiment on 786-0 renal, with HCC-2998 colon, in the experiment with HOP-92 NSCLC, in the experiment on OVCAR-8 ovarian, in the experiment with RPMI-8226 leukemia and in the experiment on SK-MEL-28 melanoma was over 100 µM throughout. Besides, the total growth inhibition concentration (TGI) in the experiment with SN12C renal and in the experiment on UACC-62 melanoma was over 100 µM in each case.

Take `C/C(Cl)=N/OC(=O)Nc1ccc(S(N)(=O)=O)c(C)c1`: the TGI in the experiment on 786-0 renal is 4.29 µM; in the experiment with HCC-2998 colon, 32.7 µM; with HOP-92 NSCLC, 4.7 µM; in the experiment on OVCAR-8 ovarian it was over 56.2 µM; in the experiment on RPMI-8226 leukemia it was 6.49 µM; in the experiment on SK-MEL-28 melanoma it was 30.6 µM. Moreover, the results for the TGI in the experiment on SN12C renal and with UACC-62 melanoma were 26.8 µM and 35.6 µM, respectively.

As for `COC(=O)/C=C(/C=C1/C(C#N)=C(N)N(c2ccc(Cl)cc2)C1(C)/C(=C/C(=O)OC)C(=O)OC)C(=O)OC` (stereo unspecified), the TGI was over 100 µM in the experiment with 786-0 renal; over 100 µM with HCC-2998 colon; 88.6 µM with HOP-92 NSCLC; over 100 µM in the experiment with OVCAR-8 ovarian; over 100 µM with RPMI-8226 leukemia; over 100 µM in the experiment on SK-MEL-28 melanoma. Also, the TGI in the experiment on SN12C renal and in the experiment on UACC-62 melanoma was over 100 µM throughout.

`O=C(O)CCC(=O)Nc1ccc2ccccc2c1`: the TGI in the experiment on 786-0 renal, in the experiment with HCC-2998 colon, with HOP-92 NSCLC, in the experiment on OVCAR-8 ovarian, with RPMI-8226 leukemia and with SK-MEL-28 melanoma was over 100 µM in each case. Further, the TGI in the experiment on SN12C renal and in the experiment with UACC-62 melanoma was over 100 µM throughout.

Consider `Cc1cc2cc3c(cc2c(-c2ccc([N+](=O)[O-])cc2)n1)OCO3`, for which the TGI is 42.5 µM in the experiment on 786-0 renal; over 100 µM in the experiment on HCC-2998 colon; 56.8 µM with HOP-92 NSCLC; over 100 µM in the experiment with OVCAR-8 ovarian; over 100 µM in the experiment with RPMI-8226 leukemia; over 100 µM in the experiment on SK-MEL-28 melanoma. Also, the TGI is over 100 µM in the experiment with SN12C renal and 67.2 µM with UACC-62 melanoma.

As to `CCCCCCCCCCCCN(CC(O)C(O)C(OC1OC(CO)C(O)C(O)C1O)C(O)CO)C(=O)CCCCCCCCCCC` (stereo unspecified), the TGI was 33.8 µM with 786-0 renal; 32.6 µM in the experiment on HCC-2998 colon; 39.5 µM in the experiment with HOP-92 NSCLC; 46.7 µM with OVCAR-8 ovarian; 50.9 µM in the experiment on RPMI-8226 leukemia; 31.9 µM in the experiment on SK-MEL-28 melanoma. Also, the TGI in the experiment with SN12C renal is 45.4 µM; in the experiment with UACC-62 melanoma it was 38.8 µM.

As to `c1nc(N2CC2)c2cnn(C3CCCCO3)c2n1` (stereo unspecified), the TGI in the experiment on 786-0 renal, in the experiment on HCC-2998 colon, with HOP-92 NSCLC, with KM20L2 colon, in the experiment on OVCAR-8 ovarian and in the experiment with RPMI-8226 leukemia was over 100 µM in each case. Besides, the TGI in the experiment on SK-MEL-28 melanoma, in the experiment on SN12C renal, with SNB-78 CNS and in the experiment on UACC-62 melanoma was over 100 µM each time.

`COc1cc2ncnc(Nc3cccc(Cl)c3)c2cc1OC`: the TGI in the experiment on 786-0 renal is 44.1 µM; with HCC-2998 colon, 54.3 µM; in the experiment with HOP-92 NSCLC it was 38.9 µM; in the experiment on OVCAR-8 ovarian, 26.1 µM; with RPMI-8226 leukemia, 42.3 µM; in the experiment with SK-MEL-28 melanoma it was 42.6 µM. The TGI in the experiment on SN12C renal worked out at 45.8 µM; in the experiment on UACC-62 melanoma, 22 µM.

For `CCCC/C=C/C/C=C/CCCCCCCCC(=O)OCC1CCCN2CCCCC12` (stereo unspecified), the TGI with 786-0 renal, with HCC-2998 colon, with HOP-92 NSCLC, in the experiment on OVCAR-8 ovarian, with RPMI-8226 leukemia and in the experiment on SK-MEL-28 melanoma was over 100 µM throughout. For the same compound, the TGI in the experiment on SN12C renal and with UACC-62 melanoma was over 100 µM each time.
